From ChEMBL document CHEMBL5046275 (J Med Chem, 2022)
Values after ≈ are worked out from the molar mass of the structure shown.

Legend:
[1] = target: T1, Cyclin-dependent kinase 5/CDK5 activator 1 (Homo sapiens, UniProt Q00535); test: Inhibition of full length N-terminal GST fused human CDK5(1 to 292 residues)/ p25 (99 to 307 residues) expressed in baculovirus expression system using FL peptide as substrate preincubated for 30 mins followed by substrate addition further incubated for 60 mins by EZ reader method
T1 sequence (Q00535 whole entry, the tested form may be a part): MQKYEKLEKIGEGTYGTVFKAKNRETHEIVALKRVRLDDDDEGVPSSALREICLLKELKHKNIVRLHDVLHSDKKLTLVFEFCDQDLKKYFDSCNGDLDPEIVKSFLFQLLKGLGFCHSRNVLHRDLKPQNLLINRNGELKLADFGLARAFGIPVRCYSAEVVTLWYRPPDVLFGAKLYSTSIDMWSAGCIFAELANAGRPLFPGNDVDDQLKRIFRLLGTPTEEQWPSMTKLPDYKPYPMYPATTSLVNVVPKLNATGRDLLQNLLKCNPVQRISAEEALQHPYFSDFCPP
T1 sequence (Q15078 whole entry, further chain, the tested form may be a part): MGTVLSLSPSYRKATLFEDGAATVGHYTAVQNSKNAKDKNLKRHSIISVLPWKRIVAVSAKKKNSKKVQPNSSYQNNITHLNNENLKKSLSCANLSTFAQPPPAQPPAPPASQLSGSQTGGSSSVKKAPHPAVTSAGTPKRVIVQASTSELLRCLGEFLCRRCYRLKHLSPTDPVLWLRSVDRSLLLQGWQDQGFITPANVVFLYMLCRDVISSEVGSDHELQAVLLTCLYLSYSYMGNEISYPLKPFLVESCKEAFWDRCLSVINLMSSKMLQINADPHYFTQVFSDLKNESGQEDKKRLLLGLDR

CDK2/Cyclin A2 = CDK2/Cyclin A2 (Homo sapiens, UniProt P24941); test: Inhibition of full length N-terminal GST tagged human CDK2(1 to 298 residues)/CyclinA2 (1 to 432 residues) expressed in baculovirus expression system using FL peptide as substrate preincubated for 30 mins followed by substrate addition further incubated for 120 mins by EZ reader method
Homo sapiens [2] = species on record: Homo sapiens; test: Selectivity ratio of IC50 for inhibition of full length N-terminal GST tagged human CDK2(1 to 298 residues)/CyclinA2 (1 to 432 residues) to IC50 for inhibition of full length N-terminal GST fused human CDK5(1 to 292 residues)/ p25 (99 to 307 residues)
CDK6/cyclin D3 = CDK6/cyclin D3 (Homo sapiens, UniProt Q00534); test: (§1) Inhibition of full length N-terminal GST fused human CDK6 (1 to 326 residues)/CyclinD3 (1 to 292 residues) expressed in baculovirus expression system using FL peptide as substrate preincubated for 30 mins followed by substrate addition and further incubated for 120 mins by EZ reader method
Chain of CDK6/cyclin D3 (P30281 whole entry, the tested form may be a part): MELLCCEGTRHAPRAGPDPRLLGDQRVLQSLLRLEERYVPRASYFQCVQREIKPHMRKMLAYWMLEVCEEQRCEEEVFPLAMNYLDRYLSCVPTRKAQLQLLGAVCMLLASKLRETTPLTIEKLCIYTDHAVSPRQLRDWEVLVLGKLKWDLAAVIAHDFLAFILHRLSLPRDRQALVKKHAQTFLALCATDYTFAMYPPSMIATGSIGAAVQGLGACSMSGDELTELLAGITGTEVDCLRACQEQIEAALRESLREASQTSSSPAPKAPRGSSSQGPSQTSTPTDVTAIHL
Chain of CDK6/cyclin D3 (Q00534 whole entry, the tested form may be a part): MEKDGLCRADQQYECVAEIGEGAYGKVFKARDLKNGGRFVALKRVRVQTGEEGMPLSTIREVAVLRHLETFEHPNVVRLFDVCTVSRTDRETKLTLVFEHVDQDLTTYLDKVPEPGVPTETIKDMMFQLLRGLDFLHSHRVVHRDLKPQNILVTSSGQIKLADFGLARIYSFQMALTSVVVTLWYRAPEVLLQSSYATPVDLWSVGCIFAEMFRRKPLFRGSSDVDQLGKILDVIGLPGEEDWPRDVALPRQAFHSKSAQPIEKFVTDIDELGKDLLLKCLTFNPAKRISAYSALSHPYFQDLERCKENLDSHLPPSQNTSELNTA

CDK7/Cyclin H/MNAT1 = CDK7/Cyclin H/MNAT1 (Homo sapiens, UniProt P50613); test: as §1, with “CDK7” for “CDK6”, “346 residues)/CyclinH” for “326 residues)/CyclinD3”, “323 residues)/ MAT1 (1 to 309” for “292”, “90” for “120”
Chain of CDK7/Cyclin H/MNAT1 (P51946 whole entry, the tested form may be a part): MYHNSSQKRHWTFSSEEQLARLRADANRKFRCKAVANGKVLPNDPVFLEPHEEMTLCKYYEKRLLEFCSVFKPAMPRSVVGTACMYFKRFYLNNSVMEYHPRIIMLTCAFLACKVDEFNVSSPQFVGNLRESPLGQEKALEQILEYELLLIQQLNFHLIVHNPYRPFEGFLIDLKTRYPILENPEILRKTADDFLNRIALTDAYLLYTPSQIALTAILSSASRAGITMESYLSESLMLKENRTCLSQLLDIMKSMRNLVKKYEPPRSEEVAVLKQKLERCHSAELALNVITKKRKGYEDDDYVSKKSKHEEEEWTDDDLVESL
Chain of CDK7/Cyclin H/MNAT1 (P50613 whole entry, the tested form may be a part): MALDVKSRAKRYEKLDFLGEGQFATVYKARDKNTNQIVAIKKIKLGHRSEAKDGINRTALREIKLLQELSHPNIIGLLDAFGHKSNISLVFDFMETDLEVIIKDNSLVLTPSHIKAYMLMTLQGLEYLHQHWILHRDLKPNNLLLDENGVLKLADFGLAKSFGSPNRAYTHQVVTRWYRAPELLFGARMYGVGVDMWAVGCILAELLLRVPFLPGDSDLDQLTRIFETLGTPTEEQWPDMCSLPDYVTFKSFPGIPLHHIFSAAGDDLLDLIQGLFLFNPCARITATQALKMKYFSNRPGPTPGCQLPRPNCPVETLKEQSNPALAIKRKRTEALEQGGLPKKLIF
Chain of CDK7/Cyclin H/MNAT1 (P51948 whole entry, further chain, the tested form may be a part): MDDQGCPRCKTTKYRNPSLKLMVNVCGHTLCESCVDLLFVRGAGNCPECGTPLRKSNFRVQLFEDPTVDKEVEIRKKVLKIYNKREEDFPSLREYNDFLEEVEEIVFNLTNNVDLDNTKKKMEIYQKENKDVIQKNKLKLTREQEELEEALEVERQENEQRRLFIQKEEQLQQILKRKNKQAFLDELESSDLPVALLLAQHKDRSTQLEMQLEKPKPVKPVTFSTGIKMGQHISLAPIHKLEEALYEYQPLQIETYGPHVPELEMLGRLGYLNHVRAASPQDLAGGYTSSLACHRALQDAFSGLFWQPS

CDK9/cyclin T1 = CDK9/cyclin T1 (Homo sapiens, UniProt P50750); test: as §1, with “CDK9(1 to 372 residues)/ His- tagged CyclinT1” for “CDK6”, “726” for “326 residues)/CyclinD3 (1 to 292”, “90” for “120”
Chain of CDK9/cyclin T1 (O60563 whole entry, the tested form may be a part): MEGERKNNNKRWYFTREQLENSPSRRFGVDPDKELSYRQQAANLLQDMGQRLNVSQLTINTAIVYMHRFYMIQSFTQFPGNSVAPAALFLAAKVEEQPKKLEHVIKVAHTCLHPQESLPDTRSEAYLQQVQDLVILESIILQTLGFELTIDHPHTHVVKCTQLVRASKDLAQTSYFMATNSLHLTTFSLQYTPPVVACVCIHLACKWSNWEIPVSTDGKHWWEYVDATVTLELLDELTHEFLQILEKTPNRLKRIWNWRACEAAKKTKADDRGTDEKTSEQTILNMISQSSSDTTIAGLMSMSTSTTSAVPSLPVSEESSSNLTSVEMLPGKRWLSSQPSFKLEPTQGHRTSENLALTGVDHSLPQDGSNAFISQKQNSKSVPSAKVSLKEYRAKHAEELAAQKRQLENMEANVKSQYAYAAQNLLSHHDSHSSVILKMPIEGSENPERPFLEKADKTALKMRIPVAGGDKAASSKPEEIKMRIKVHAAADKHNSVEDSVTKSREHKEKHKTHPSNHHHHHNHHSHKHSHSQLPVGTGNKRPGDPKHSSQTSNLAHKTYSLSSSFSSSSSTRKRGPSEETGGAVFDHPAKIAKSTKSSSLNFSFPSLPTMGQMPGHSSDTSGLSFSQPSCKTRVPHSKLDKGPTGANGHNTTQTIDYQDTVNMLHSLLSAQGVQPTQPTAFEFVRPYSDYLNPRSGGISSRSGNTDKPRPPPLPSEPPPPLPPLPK
Chain of CDK9/cyclin T1 (P50750 whole entry, the tested form may be a part): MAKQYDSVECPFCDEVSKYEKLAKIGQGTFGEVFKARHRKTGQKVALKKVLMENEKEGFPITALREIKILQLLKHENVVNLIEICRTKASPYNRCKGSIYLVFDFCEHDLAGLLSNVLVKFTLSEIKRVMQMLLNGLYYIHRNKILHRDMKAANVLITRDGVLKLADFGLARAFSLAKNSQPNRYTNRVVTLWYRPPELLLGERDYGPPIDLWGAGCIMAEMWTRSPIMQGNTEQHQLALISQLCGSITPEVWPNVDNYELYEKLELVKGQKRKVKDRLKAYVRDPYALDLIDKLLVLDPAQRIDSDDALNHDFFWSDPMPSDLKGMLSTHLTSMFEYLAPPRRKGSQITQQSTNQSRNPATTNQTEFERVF

Homo sapiens [3] = species on record: Homo sapiens; test: Selectivity ratio of IC50 for human CDK6 to IC50 for human CDK5
Homo sapiens [4] = species on record: Homo sapiens; test: Selectivity ratio of IC50 for human CDK7 to IC50 for human CDK5
Homo sapiens [5] = species on record: Homo sapiens; test: Selectivity ratio of IC50 for human CDK9 to IC50 for human CDK5
[6] = Kinetic aqueous solubility of compound in PBS at pH 7.4 incubated for 2 hrs by LC-MS/MS analysis; format: physicochemical; conditions: read-out: Kinetic_solubility
P-gp = test: Substrate activity at P-gp in dog MDCKII-MDR1 cells assessed as efflux ratio of permeability at 1 uM incubated for 120 mins; format: ADME, cell-based, Canis lupus familiaris; conditions: MDCK-MDR1
[7] = Apparent permeability across apical to basolateral side in dog MDCKII-MDR1 cells at 1 uM incubated for 120 mins; format: ADME, cell-based, Canis lupus familiaris; conditions: MDCK-MDR1
[8] = Plasma protein binding in Sprague-Dawley rat at 1 uM incubated for 6 hrs by equilibrium dialysis based LC-MS/MS analysis; format: ADME, cell-free; conditions: read-out: PPB (converted)
[9] = Metabolic stability human hepatocytes assessed as intrinsic clearance at 1 uM measured up to 120 mins by LC-MS/MS analysis; format: ADME, cell-based, Hepatocyte; conditions: read-out: CLH
[10] = Metabolic stability in CD-1 mouse hepatocytes assessed as intrinsic clearance at 1 uM measured up to 120 mins by LC-MS/MS analysis; format: ADME, cell-based, Hepatocyte; conditions: read-out: CLH
[11] = Metabolic stability in Sprague-Dawley rat hepatocytes assessed as intrinsic clearance at 1 uM measured up to 120 mins by LC-MS/MS analysis; format: ADME, cell-based, Hepatocyte; conditions: read-out: CLH
[12] = Clearance in Sprague-Dawley rat at 1 mg/kg, iv measured upto 24 hrs by LC-MS/MS analysis; format: ADME, organism-based; conditions: in vivo
[13] = Volume of distribution at steady state in Sprague-Dawley rat at 1 mg/kg, iv measured upto 24 hrs by LC-MS/MS analysis; format: ADME, organism-based; conditions: in vivo, read-out: Vdss
[14] = Half life in Sprague-Dawley rat at 1 mg/kg, iv measured upto 24 hrs by LC-MS/MS analysis; format: ADME, organism-based; conditions: in vivo
[15] = AUC (0 to 24 hrs) in Sprague-Dawley rat at 1 mg/kg, iv measured upto 24 hrs by LC-MS/MS analysis; format: ADME, organism-based; parameters: route intravenous, dose 1 mg/kg, time <=24; conditions: in vivo
[16] = Cmax in Sprague-Dawley rat at 3 mg/kg, po measured upto 24 hrs by LC-MS/MS analysis; format: ADME, organism-based; parameters: route oral, dose 3 mg/kg, time <=24; conditions: in vivo
[17] = AUC (0 to 24 hrs) in Sprague-Dawley rat at 3 mg/kg, po measured upto 24 hrs by LC-MS/MS analysis; format: ADME, organism-based; parameters: route oral, dose 3 mg/kg, time <=24; conditions: in vivo
[18] = Oral bioavailability in Sprague-Dawley rat at 3 mg/kg measured upto 24 hrs by LC-MS/MS analysis; format: ADME, organism-based; conditions: in vivo
[19] = Cmax in Sprague-Dawley rat at 10 mg/kg, po measured upto 24 hrs by LC-MS/MS analysis; format: ADME, organism-based; parameters: route oral, dose 10 mg/kg, time <=24; conditions: in vivo
[20] = AUC (0 to 24 hrs) in Sprague-Dawley rat at 10 mg/kg, po measured upto 24 hrs by LC-MS/MS analysis; format: ADME, organism-based; parameters: route oral, dose 10 mg/kg, time <=24; conditions: in vivo
[21] = Oral bioavailability in Sprague-Dawley rat at 10 mg/kg measured upto 24 hrs by LC-MS/MS analysis; format: ADME, organism-based; conditions: in vivo
[22] = target: T1, Cyclin-dependent kinase 5/CDK5 activator 1; test: Inhibition of Nano-Luc fused human full length CDK5/P35 transfected in HEK293 cells incubated for 1 hr by NanoBRET assay; format: cell-based
HEK-293T = test: Antiproliferative activity against human HEK293T cells assessed as cell growth inhibition incubated for 48 hrs; format: functional, cell-based

IC50 [1] | IC50 (CDK2/Cyclin A2) | Ratio IC50 (Homo sapiens [2]) | IC50 (CDK6/cyclin D3) | IC50 (CDK7/Cyclin H/MNAT1) | IC50 (CDK9/cyclin T1) | solubility kinetic at 2 h [6] | efflux ratio at 2 h, 1 µM (P-gp) | Papp A→B at 2 h, 1 µM [7] | fraction unbound at 6 h, 1 µM [8] | CLint scaled at 1 µM [9] | CLint scaled at 1 µM [10] | CLint scaled at 1 µM [11] | clearance [12] | Vd [13] | half-life [14] | AUC(0-t) [15] | Cmax [16] | AUC(0-t) [17] | bioavailability [18] | Compound | further results
2.3 nM | 211 nM | 92 | 3200 nM | 718 nM | 894 nM | 259 µM (≈ 116 µg/mL) | 9 | 18 ×10⁻⁶ cm/s | 0.37 | 13 mL/min/kg | 89 mL/min/kg | 17 mL/min/kg | 12 mL/min/kg | 7.3 L/kg | 7.6 h | 1300 ng·h/mL | 83 ng/mL | 999 ng·h/mL | 25% | CN1CCC([C@@](C)(O)c2ccc3cnc(Nc4cc(C(F)(F)F)ncc4F)cc3n2)CC1 | Ratio IC50 (Homo sapiens [3]): 1390; Ratio IC50 (Homo sapiens [4]): 312; Ratio IC50 (Homo sapiens [5]): 389; Cmax [19]: 350 ng/mL; AUC(0-t) [20]: 5320 ng·h/mL; bioavailability [21]: 41%
3.2 nM | 301 nM | 94 | 125 nM | 78 nM | 154 nM | 274 µM (≈ 128 µg/mL) | 38 | 7.9 ×10⁻⁶ cm/s | 0.53 | < 7 mL/min/kg | 69 mL/min/kg | < 13 mL/min/kg | 53 mL/min/kg | 9.4 L/kg | 2.7 h | 305 ng·h/mL | 19 ng/mL | 143 ng·h/mL | 16% | CN1CCC([C@@](C)(O)c2ccc3cnc(Nc4cc(N5CCOCC5)ncc4F)cc3n2)CC1 | IC50 [22]: 1.2 nM; IC50 (HEK-293T): > 10000 nM
